Data: ChEMBL document CHEMBL1146932, “A series of 23,24-dihydrodiscodermolide analogues with simplified lactone regions” (2006)

How the values were obtained:
Format in all cases: functional
Conditions in all cases: Homo sapiens
MCF7 = assay: Antiproliferative activity against MCF7 cell line
NCI/ADR-RES = assay: Antiproliferative activity against NCI/ADR cell line
A549 [1] = assay: Antiproliferative activity against A549 cell line
A549 [2] = assay: Antiproliferative activity against A549t12 cell line
CCRF-CEM [3] = assay: Antiproliferative activity against resistant CCRF-CEM/PTX cell line
CCRF-CEM [4] = assay: Antiproliferative activity against resistant CCRF-CEM/VBL cell line
CCRF-CEM [5] = assay: Antiproliferative activity against resistant CCRF-CEM/VP16 cell line
CCRF-CEM [6] = assay: Antiproliferative activity against CCRF-CEM cell line

Compound	GI50 (MCF7) [nM]	GI50 (NCI/ADR-RES) [nM]	GI50 (A549 [1]) [nM]	GI50 (A549 [2]) [nM]	GI50 (CCRF-CEM [3]) [nM]	GI50 (CCRF-CEM [4]) [nM]	GI50 (CCRF-CEM [5]) [nM]	GI50 (CCRF-CEM [6]) [nM]
CC/C=C\[C@H](C)[C@H](OC(N)=O)[C@@H](C)[C@H](O)[C@@H](C)C/C(C)=C\[C@H](C)[C@@H](O)[C@@H](C)/C=C\[C@@H](O)C[C@@H]1OC(=O)[C@H](C)[C@@H](O)[C@H]1C	6.2	190	7	–	–	–	–	–
CC/C=C\[C@H](C)[C@H](OC(N)=O)[C@@H](C)[C@H](O)[C@@H](C)C/C(C)=C\[C@H](C)[C@@H](O)[C@@H](C)/C=C\[C@H](O)C[C@@H]1CCC(=O)O1	2000	10000	4000	10000	–	–	–	–
CC/C=C\[C@H](C)[C@H](OC(N)=O)[C@@H](C)[C@H](O)[C@@H](C)C/C(C)=C\[C@H](C)[C@@H](O)[C@@H](C)/C=C\[C@@H](O)C[C@@H]1OC(=O)[C@H](C)C[C@H]1C	5.8	140	11	50	65	209	12	8.6
CC/C=C\[C@H](C)[C@H](OC(N)=O)[C@@H](C)[C@H](O)[C@@H](C)C/C(C)=C\[C@H](C)[C@@H](O)[C@@H](C)/C=C\[C@@H](O)C[C@H](O)[C@H](C)CO	1000	10000	3000	5000	–	–	–	–
CC/C=C\[C@H](C)[C@H](OC(N)=O)[C@@H](C)[C@H](O)[C@@H](C)C/C(C)=C\[C@H](C)[C@@H](O)[C@@H](C)/C=C\[C@@H](O)C[C@H]1CCC(=O)O1	6.4	730	46	63	285	3810	7.1	6.5
CC/C=C\[C@H](C)[C@H](OC(N)=O)[C@@H](C)[C@H](O)[C@@H](C)C/C(C)=C\[C@H](C)[C@@H](O)[C@@H](C)/C=C\[C@@H](O)C[C@@H]1OC(=O)NC[C@H]1C	110	10000	520	1000	–	–	–	–
CC/C=C\[C@H](C)[C@H](OC(N)=O)[C@@H](C)[C@H](O)[C@@H](C)C/C(C)=C\[C@H](C)[C@@H](O)[C@@H](C)/C=C\[C@@H](O)C[C@H](O)[C@H](C)C[C@H](C)C(=O)OC	1000	10000	4000	4000	–	–	–	–
CC/C=C\[C@H](C)[C@H](OC(N)=O)[C@@H](C)[C@H](O)[C@@H](C)C/C(C)=C\[C@H](C)[C@@H](O)[C@@H](C)/C=C\[C@@H](O)C[C@@H]1OC(=O)[C@H](C)[C@@H](OC)[C@H]1C	3.8	250	6.5	12	79	416	8.4	4.4
C=C/C=C\[C@H](C)[C@H](OC(N)=O)[C@@H](C)[C@H](O)[C@@H](C)C/C(C)=C\[C@H](C)[C@@H](O)[C@@H](C)/C=C\[C@@H](O)C[C@@H]1OC(=O)[C@H](C)[C@@H](O)[C@H]1C [DISERMOLIDE]	28	240	22	30	92	158	52	16
